According to US20240247080A1, “GLP1/GIP/NPY2 RECEPTOR TRIPLE AGONISTS” (Boehringer Ingelheim International GmbH, priority 2022, published 2024):
pEC50: −log10 of the molar value. Read-outs that look alike come from different tables or passages of the source.

How the values were obtained:
Type in all cases: cell-based
hNPY2R = molecular target: T1, hNPY2R (Homo sapiens, UniProt P49146); assay: hNPY2R CreLuc reporter gene assay in 0.5% and 100% plasma
T1 construct: expressed in transfected cells; host or cells: HEK-293 cells carrying a CRE-luciferase reporter gene
T1 sequence (P49146 1-381): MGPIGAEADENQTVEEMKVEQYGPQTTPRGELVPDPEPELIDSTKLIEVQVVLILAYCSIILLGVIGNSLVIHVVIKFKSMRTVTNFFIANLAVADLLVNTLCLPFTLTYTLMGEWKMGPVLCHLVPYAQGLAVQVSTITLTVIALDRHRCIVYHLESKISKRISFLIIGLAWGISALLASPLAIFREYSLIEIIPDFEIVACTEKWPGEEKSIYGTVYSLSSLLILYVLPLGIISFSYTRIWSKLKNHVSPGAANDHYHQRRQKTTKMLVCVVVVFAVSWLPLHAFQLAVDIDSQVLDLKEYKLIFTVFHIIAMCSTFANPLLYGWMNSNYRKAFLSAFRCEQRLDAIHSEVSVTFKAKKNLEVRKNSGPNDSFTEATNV
In short: (§1)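 HEK cells (GLP-1R, NPY2R) or CHO cells (GIPR) carrying a CRE-luciferase reporter, incubated 4 h at 37 °C with peptides in HBSS/20 mM HEPES pH 7.4 plus 0.5% human plasma, or in 100% plasma. Luminescence read; EC50 from 8-point variable-slope sigmoid fits.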

hGIPR = molecular target: T2, hGIPR (Homo sapiens, UniProt P48546); assay: hGIPR CreLuc reporter gene assay in 0.5% and 100% plasma
T2 construct: expressed in transfected cells; host or cells: CHO cells carrying a CRE-luciferase reporter gene
T2 sequence (P48546 22-466): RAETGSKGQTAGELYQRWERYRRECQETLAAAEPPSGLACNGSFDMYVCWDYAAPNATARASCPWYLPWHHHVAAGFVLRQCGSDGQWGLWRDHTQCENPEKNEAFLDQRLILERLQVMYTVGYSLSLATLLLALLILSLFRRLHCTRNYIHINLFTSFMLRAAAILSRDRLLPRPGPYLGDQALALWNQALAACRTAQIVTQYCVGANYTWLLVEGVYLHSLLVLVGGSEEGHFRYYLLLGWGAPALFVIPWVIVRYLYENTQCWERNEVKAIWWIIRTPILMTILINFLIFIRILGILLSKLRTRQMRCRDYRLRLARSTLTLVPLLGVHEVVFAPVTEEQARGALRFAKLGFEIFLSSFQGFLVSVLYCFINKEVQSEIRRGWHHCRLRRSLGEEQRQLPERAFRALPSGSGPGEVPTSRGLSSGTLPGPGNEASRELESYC
In short: as §1

hGLP1R = molecular target: T3, hGLP1R (Homo sapiens, UniProt P43220); assay: hGLP1R CreLuc reporter gene assay in 0.5% and 100% plasma
T3 construct: expressed in transfected cells; host or cells: HEK-293 cells carrying a CRE-luciferase reporter gene
In short: as §1

T3 sequence (P43220 24-463): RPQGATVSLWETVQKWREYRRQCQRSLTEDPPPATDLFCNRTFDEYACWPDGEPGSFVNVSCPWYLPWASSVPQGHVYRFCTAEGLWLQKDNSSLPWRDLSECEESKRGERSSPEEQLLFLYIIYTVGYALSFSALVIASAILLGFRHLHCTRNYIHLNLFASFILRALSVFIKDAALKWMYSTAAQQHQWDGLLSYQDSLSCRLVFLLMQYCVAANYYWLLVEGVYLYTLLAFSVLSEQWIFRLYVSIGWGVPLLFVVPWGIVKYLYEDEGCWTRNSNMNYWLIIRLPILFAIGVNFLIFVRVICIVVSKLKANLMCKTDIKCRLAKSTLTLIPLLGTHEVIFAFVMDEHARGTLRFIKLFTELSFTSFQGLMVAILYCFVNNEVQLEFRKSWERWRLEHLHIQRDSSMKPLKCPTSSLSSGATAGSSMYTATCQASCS

Q: How did the pEC50 (hNPY2R; CreLuc reporter gene assay, 100% human plasma, read-out: hNPY2R 100% hP) turn out when `CC[C@H](C)[C@H](NC(=O)[C@H](CC(C)C)NC(=O)[C@H](Cc1c[nH]c2ccccc12)NC(=O)[C@H](CCC(=O)O)NC(=O)[C@@H](NC(=O)[C@H](Cc1ccccc1)NC(=O)[C@H](C)NC(=O)C(C)(C)NC(=O)[C@H](CCC(N)=O)NC(=O)[C@H](C)NC(=O)[C@H](CCC(N)=O)NC(=O)[C@H](CCCCN)NC(=O)[C@H](CCC(=O)O)NC(=O)[C@H](CC(C)C)NC(=O)C(C)(C)NC(=O)[C@@H](NC(=O)[C@H](CO)NC(=O)[C@H](Cc1ccc(O)cc1)NC(=O)[C@H](CC(=O)O)NC(=O)[C@H](CO)NC(=O)[C@@H](NC(=O)[C@H](Cc1ccccc1)NC(=O)[C@@H](NC(=O)CNC(=O)[C@H](CCC(=O)O)NC(=O)C(C)(C)NC(=O)[C@@H](N)Cc1ccc(O)cc1)[C@@H](C)O)[C@@H](C)O)[C@@H](C)CC)C(C)C)C(=O)N[C@@H](CCCCNC(=O)[C@@H](N)CCCCNC(=O)CC[C@H](NC(=O)CC[C@H](NC(=O)CC[C@H](NC(=O)CC[C@H](NC(=O)CC[C@H](NC(=O)CC[C@H](NC(=O)CCCCCCCCCCCCCCCCCCC(=O)O)C(=O)O)C(=O)O)C(=O)O)C(=O)O)C(=O)O)C(=O)O)C(=O)NCC(=O)NCC(=O)N1CCC[C@H]1C(=O)N[C@@H](CO)C(=O)N[C@@H](CO)C(=O)NCC(=O)N[C@@H](C)C(=O)N[C@@H](CO)C(=O)N[C@@H](CC(C)C)C(=O)N[C@@H](CCCNC(=N)N)C(=O)N[C@@H](Cc1c[nH]cn1)C(=O)N[C@@H](Cc1ccc(O)cc1)C(=O)N[C@@H](CC(C)C)C(=O)N[C@@H](CC(N)=O)C(=O)N[C@@H](Cc1c[nH]c2ccccc12)C(=O)N[C@@H](CC(C)C)C(=O)N[C@H](C(=O)N[C@@H](CCCNC(=N)N)C(=O)N[C@@H](CCC(N)=O)C(=O)N[C@@H](CCCNC(=N)N)C(=O)N[C@@H](Cc1ccc(O)cc1)C(N)=O)[C@@H](C)O` [Compound 86, Y-Aib-E-G-T-F-T-S-D-Y-S-I-Aib-L-E-K-Q-A-Q-Aib-A-F-V-E-W-L-I-K(1,3)-GGPSSGASLRHYLNWLTRQRY-NH2.C20DA-gGlu-gGlu-gGlu-gGlu-gGlu-gGlu-eLys(1,2)] was run?
A: The pEC50 was 7.27.

Q: And the pEC50 (hGIPR; CreLuc reporter gene assay, 0.5% human plasma, read-out: hGIPR 0.5% hP)?
A: Its pEC50 is 9.32.

Q: What about the pEC50 (hGIPR; CreLuc reporter gene assay, 100% human plasma, read-out: hGIPR 100% hP) of the same compound?
A: Its pEC50 is 8.79.

Q: What about the pEC50 (hGLP1R; CreLuc reporter gene assay, 0.5% human plasma, read-out: hGLP1R 0.5% hP) of the same compound?
A: The pEC50 was 9.60.

Q: With `CC[C@H](C)[C@H](NC(=O)[C@H](CC(C)C)NC(=O)[C@H](Cc1c[nH]c2ccccc12)NC(=O)[C@H](CCC(=O)O)NC(=O)[C@@H](NC(=O)[C@H](Cc1ccccc1)NC(=O)[C@H](C)NC(=O)C(C)(C)NC(=O)[C@H](CCC(N)=O)NC(=O)[C@H](C)NC(=O)[C@H](CCC(N)=O)NC(=O)[C@H](CCCCN)NC(=O)[C@H](CCC(=O)O)NC(=O)[C@H](CC(C)C)NC(=O)C(C)(C)NC(=O)[C@@H](NC(=O)[C@H](CO)NC(=O)[C@H](Cc1ccc(O)cc1)NC(=O)[C@H](CC(=O)O)NC(=O)[C@H](CO)NC(=O)[C@@H](NC(=O)[C@H](Cc1ccccc1)NC(=O)[C@@H](NC(=O)CNC(=O)[C@H](CC(=O)O)NC(=O)C(C)(C)NC(=O)[C@@H](N)Cc1ccc(O)cc1)[C@@H](C)O)[C@@H](C)O)[C@@H](C)CC)C(C)C)C(=O)N[C@@H](CCCCNC(=O)[C@@H](N)CCCCNC(=O)CC[C@H](NC(=O)CC[C@H](NC(=O)CC[C@H](NC(=O)CC[C@H](NC(=O)CC[C@H](NC(=O)CC[C@H](NC(=O)CCCCCCCCCCCCCCCCCCC(=O)O)C(=O)O)C(=O)O)C(=O)O)C(=O)O)C(=O)O)C(=O)O)C(=O)NCC(=O)NCC(=O)N1CCC[C@H]1C(=O)N[C@@H](CO)C(=O)N[C@@H](CO)C(=O)NCC(=O)N[C@@H](C)C(=O)N[C@@H](CO)C(=O)N[C@@H](CC(C)C)C(=O)N[C@@H](CCCNC(=N)N)C(=O)N[C@@H](Cc1c[nH]cn1)C(=O)N[C@@H](Cc1ccc(O)cc1)C(=O)N[C@@H](Cc1ccc(O)cc1)C(=O)N[C@@H](CC(N)=O)C(=O)N[C@@H](Cc1c[nH]c2ccccc12)C(=O)N[C@@H](CC(C)C)C(=O)N[C@H](C(=O)N[C@@H](CCCNC(=N)N)C(=O)N[C@@H](CCC(N)=O)C(=O)N[C@@H](CCCNC(=N)N)C(=O)N[C@@H](Cc1ccc(O)cc1)C(N)=O)[C@@H](C)O` [Compound 87, Y-Aib-D-G-T-F-T-S-D-Y-S-I-Aib-L-E-K-Q-A-Q-Aib-A-F-V-E-W-L-I-K(1,3)-GGPSSGASLRHYYNWLTRQRY-NH2.C20DA-gGlu-gGlu-gGlu-gGlu-gGlu-gGlu-eLys(1,2)] as the compound, how does the pEC50 (hNPY2R; hNPY2R 0.5% hP) read?
A: The pEC50 was 7.68.

Q: What about the pEC50 (hGIPR; hGIPR 0.5% hP) of the same compound?
A: Its pEC50 is 9.24.

Q: What about the pEC50 (hGLP1R; hGLP1R 0.5% hP) of the same compound?
A: Its pEC50 is 10.10.

Q: And the pEC50 (hGLP1R; hGLP1R 100% hP)?
A: The pEC50 was 8.70.

Q: With `CC[C@H](C)[C@H](NC(=O)[C@H](CC(C)C)NC(=O)[C@H](Cc1c[nH]c2ccccc12)NC(=O)[C@H](CCC(=O)O)NC(=O)[C@@H](NC(=O)[C@H](Cc1ccccc1)NC(=O)[C@H](C)NC(=O)C(C)(C)NC(=O)[C@H](CCC(N)=O)NC(=O)[C@H](C)NC(=O)[C@H](CCC(N)=O)NC(=O)[C@H](CCCCN)NC(=O)[C@H](CCC(=O)O)NC(=O)[C@H](CC(C)C)NC(=O)C(C)(C)NC(=O)[C@@H](NC(=O)[C@H](CO)NC(=O)[C@H](Cc1ccc(O)cc1)NC(=O)[C@H](CC(=O)O)NC(=O)[C@H](CO)NC(=O)[C@@H](NC(=O)[C@H](Cc1ccccc1)NC(=O)[C@@H](NC(=O)CNC(=O)[C@H](CCC(=O)O)NC(=O)C(C)(C)NC(=O)[C@@H](N)Cc1ccc(O)cc1)[C@@H](C)O)[C@@H](C)O)[C@@H](C)CC)C(C)C)C(=O)N[C@@H](CCCCNC(=O)[C@@H](N)CCCCNC(=O)CC[C@H](NC(=O)CC[C@H](NC(=O)CC[C@H](NC(=O)CC[C@H](NC(=O)CC[C@H](NC(=O)CC[C@H](NC(=O)CCCCCCCCCCCCCCCCCCC(=O)O)C(=O)O)C(=O)O)C(=O)O)C(=O)O)C(=O)O)C(=O)O)C(=O)NCC(=O)NCC(=O)N1CCC[C@H]1C(=O)N[C@@H](CO)C(=O)N[C@@H](CO)C(=O)NCC(=O)N[C@@H](C)C(=O)N[C@@H](CO)C(=O)N[C@H](C(=O)N[C@@H](CCCNC(=N)N)C(=O)N[C@@H](Cc1c[nH]cn1)C(=O)N[C@@H](Cc1ccc(O)cc1)C(=O)N[C@@H](Cc1ccc(O)cc1)C(=O)N[C@@H](CC(N)=O)C(=O)N[C@@H](Cc1c[nH]c2ccccc12)C(=O)N[C@@H](CC(C)C)C(=O)N[C@H](C(=O)N[C@@H](CCCNC(=N)N)C(=O)N[C@@H](CCC(N)=O)C(=O)N[C@@H](CCCNC(=N)N)C(=O)N[C@@H](Cc1ccc(O)cc1)C(N)=O)[C@@H](C)O)C(C)(C)C` [Compound 103, Y-Aib-E-G-T-F-T-S-D-Y-S-I-Aib-L-E-K-Q-A-Q-Aib-A-F-V-E-W-L-I-K(1,3)-G-G-P-S-S-G-A-S-Tle-R-H-Y-Y-N-W-L-T-R-Q-R-Y-NH2.C20DA-gGlu-gGlu-gGlu-gGlu-gGlu-gGlu-eLys(1,2)] as the compound, how does the pEC50 (hNPY2R; hNPY2R 100% hP, CreLuc reporter gene assay, 100% human plasma) read?
A: Its pEC50 is 7.30.

Q: What about the pEC50 (hGIPR; hGIPR 0.5% hP, CreLuc reporter gene assay, 0.5% human plasma) of the same compound?
A: The pEC50 was 9.59.

Q: What about the pEC50 (hGLP1R; hGLP1R 0.5% hP, CreLuc reporter gene assay, 0.5% human plasma) of the same compound?
A: The pEC50 was 9.89.
